In patent US20060189675A1, “Crystalline form of a drug” (priority 2004, published 2006):
Converted amounts (≈) assume the structure as drawn.

Experiment: Solubility of Atrasentan Hydrochloride Crystalline Forms in 1,4-dioxane
Format: physicochemical
Settings: 25° C., n=3
Method: The solubility (in mg/mL) of Atrasentan Hydrochloride Crystalline Forms 1, 2 and 3 in 1,4-dioxane at 25° C.

Point of comparison: CCCCN(CCCC)C(=O)CN1C[C@H](c2ccc3c(c2)OCO3)[C@@H](C(=O)O)[C@@H]1c1ccc(OC)cc1 [Form 2, (2R,3R,4S)-(+)-2-(4-methoxyphenyl)-4-(1,3-benzodioxol-5-yl)-1-(N,N-di(n-butyl)aminocarbonylmethyl)pyrrolidine-3-carboxylic acid], “solubility in 1,4-dioxane” value 16.66 ± 0.22 mg/mL (≈ 32.6 mM). Against it:
- CCCCN(CCCC)C(=O)CN1C[C@H](c2ccc3c(c2)OCO3)[C@@H](C(=O)O)[C@@H]1c1ccc(OC)cc1 [Form 1, (2R,3R,4S)-(+)-2-(4-methoxyphenyl)-4-(1,3-benzodioxol-5-yl)-1-(N,N-di(n-butyl)aminocarbonylmethyl)pyrrolidine-3-carboxylic acid] — 2.1-fold higher, 35.60 ± 1.82 mg/mL (≈ 69.7 mM)
- CCCCN(CCCC)C(=O)CN1C[C@H](c2ccc3c(c2)OCO3)[C@@H](C(=O)O)[C@@H]1c1ccc(OC)cc1 [Form 3, (2R,3R,4S)-(+)-2-(4-methoxyphenyl)-4-(1,3-benzodioxol-5-yl)-1-(N,N-di(n-butyl)aminocarbonylmethyl)pyrrolidine-3-carboxylic acid] — within error, 16.53 ± 0.22 mg/mL (≈ 32.4 mM)
